Laboratory results taken from US10513694B2, “Thienopyrrole compounds and uses thereof” (PROMEGA CORPORATION, priority 2015, dated 2019).
Entries after “also recorded” stand apart in the source; their conditions may differ.

Tests used:
[1] = test system: Nluc-ADRB2 (extracellular Nluc) or ADRB2-Nluc (intracellular Nluc); experiment: Cell permeability with bioluminescent imaging (HeLa, Nluc-ADRB2 / ADRB2-Nluc); format: cell-based; conditions: 30 μM compound, 10 μM furimazine
Procedure: HeLa cells were transiently transfected with Nluc-ADRB2 (extracellular Nluc) or ADRB2-Nluc (intracellular Nluc) to anchor and orient Nluc extracellularly or intracellularly, respectively. 24 hrs post-transfection, cells were treated with −/+30 μM of a thienopyrrole compound, JRW-0147, JRW-0013, and JRW-0344. 10 μM furimazine was added, and luminescence was detected by imaging on the Olympus LV200.

Nluc [2] = target: T1, Nluc (Oplophorus gracilirostris, UniProt Q9GV45, A31E/A60N/A81I/F95D/I117V/K70R/L54V/L99Q/M102K/N193R/P142E/Q151K/Q38R/Q45L/V71I/Y165I); experiment: Multiplex RealTime-Glo / Caspase-Glo 3/7 in A549 cells; format: cell-based; design: purchased Promega Corporation; conditions: final, 1 hr
Procedure: B) A549 cells were plated at 1,000 cells/well in 20 μL F12K media into wells of a Corning 3570 plate (n-4) and incubated overnight. Then, REALTIME-GLO™ MT Cell Viability assay reagents (Promega Corporation) were added to the wells as a 2× solution in 20 μL media. The reaction was incubated for 1 hr. 40 μL of a titration of JRW-0013 or JRW-0147 in CASPASE-GLO® 3/7 assay reagent (Promega Corporation) at 2× concentrations was added. The reactions were incubated at RT, and luminescence was determined at 1 hr.

[3] = test system: firefly luciferase, e.g., ULTRAGLO® luciferase; experiment: Specificity of inhibition: firefly luciferase activity; format: biochemical; conditions: 1 μM luciferin in Luciferase Detection Reagent; RT 2 hrs
Outline: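 Counter-screen against firefly (ULTRAGLO®) luciferase: 1 μM luciferin in detection reagent mixed with equal volume of compound titrations. After 2 hrs at RT, luminescence read.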

Nluc luciferase = Nluc luciferase (Oplophorus gracilirostris, UniProt Q9GV45, A31E/A60N/A81I/F95D/I117V/K70R/L54V/L99Q/M102K/N193R/P142E/Q151K/Q38R/Q45L/V71I/Y165I); format: cell-based; design: expressed in transfected cells; host or cells: HEK293; conditions: HEK293; 10, 30 or 120 minutes
Procedure: HEK293 cells were transiently transfected with Nluc luciferase to express it cytosolically. Twenty-four hours post-transfection, cells were exposed to a compound response curve of the thienopyrrole compound JRW-0147 or JRW-0013 for 10 minutes, 30 minutes, or 120 minutes. 10 μM furimazine was then added, and luminescence was measured.

[4] = test system: Beta-2 Adrenergic Receptor-Nluc (B2AR-Nluc) fusion protein; experiment: Cell permeability, B2AR-Nluc in HEK293 -/+ digitonin; format: cell-based; conditions: HEK293 B2AR-Nluc -/+ 50 μg/mL digitonin; up to 2 hrs
Procedure: HEK293 were transiently transfected with Beta-2 Adrenergic Receptor-Nluc (B2AR-Nluc) fusion protein to anchor and orient Nluc cytosolically and pGEM-3z carrier DNA (1:100). 24 hrs post-transfection, cells were treated with −/+50 μg/mL digitonin to emulate a live and lytic scenario, respectively. Then, intact cells and permeabilized cells were exposed to a compound response curve of thienopyrrole compound up to 2 hrs. 10 μM furimazine (Promega Corp.) was added, and luminescence was measured. If a thienopyrrole compound (inhibitor) was permeable, the dose-response curves for both live and permeabilized cells overlapped. However, if a thienopyrrole compound was impermeable, the EC50 was right-shifted in the live cells relative to the permeabilized cells.

NANOLUC® enzyme = NANOLUC® enzyme (Oplophorus gracilirostris, UniProt Q9GV45, A31E/A60N/A81I/F95D/I117V/K70R/L54V/L99Q/M102K/N193R/P142E/Q151K/Q38R/Q45L/V71I/Y165I); experiment: Inhibitor IC50 determination (NANOLUC enzyme, furimazine); format: biochemical; conditions: IC50 (uM), 0.4 ng/ml NANOLUC enzyme, final furimazine 10 uM (at Km)
Nluc [5] = target: T1, Nluc; experiment: Specificity of inhibition of Nluc luciferase: Nluc; format: biochemical

T1 sequence (Q9GV45 28-196 with tags or gaps with the stated changes limits assumed): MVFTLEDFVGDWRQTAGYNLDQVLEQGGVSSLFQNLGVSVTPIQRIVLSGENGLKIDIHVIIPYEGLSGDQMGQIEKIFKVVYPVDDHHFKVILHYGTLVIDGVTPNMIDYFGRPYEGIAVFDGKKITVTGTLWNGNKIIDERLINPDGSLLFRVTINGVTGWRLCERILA
NANOLUC® enzyme, sequence (Q9GV45 28-196 with tags or gaps with the stated changes limits assumed): as above
Nluc luciferase, sequence (Q9GV45 28-196 with tags or gaps with the stated changes limits assumed): as above

Row | SMILES | Inhibition of Nluc oriented extracellularly / intracellularly by imaging (FIG. 19) [1] | Caspase, Avg (luminescence) (Nluc [2]; Inhibitor 1.73 μM) | Caspase, Avg (luminescence) (Nluc [2]; Inhibitor 2.60 μM) | Caspase, Avg (luminescence) (Nluc [2]; Inhibitor 3.90 μM) | Caspase, Avg (luminescence) (Nluc [2]; Inhibitor 5.85 μM) | Caspase, Avg (luminescence) (Nluc [2]; Inhibitor 8.78 μM) | Caspase, Avg (luminescence) (Nluc [2]; Inhibitor 13.17 μM) | Caspase, Avg (luminescence) (Nluc [2]; Inhibitor 19.75 μM) | Caspase, Avg (luminescence) (Nluc [2]; Inhibitor 29.63 μM) | Caspase, Avg (luminescence) (Nluc [2]; Inhibitor 44.44 μM) | Caspase, Avg (luminescence) (Nluc [2]; Inhibitor 66.67 μM) | Caspase, Avg (luminescence) (Nluc [2]; Inhibitor 100 μM) | Inhibition of firefly luciferase activity (FIG. 3) [3] | Change in RLUs from cytosolic Nluc (FIG. 16) (Nluc luciferase) | Cell permeability, EC50 in Live vs Lytic cells (FIGS. 17A-17C) [4] | IC50 (NANOLUC® enzyme) | Nluc, Avg (luminescence) (Nluc [5]; [cmpd] 0.1953125 μM) | Nluc, S/B (Nluc [5]; [cmpd] 0.1953125 μM) | Nluc, Avg (luminescence) (Nluc [5]; [cmpd] 0.390625 μM) | Nluc, S/B (Nluc [5]; [cmpd] 0.390625 μM) | other results
1 | CCN(C(=O)Cn1c(C(=O)N[C@H]2CC[C@H](C(=O)OC)CC2)cc2sccc21)c1cccc(C)c1 [JRW-0013, trans-methyl-4-(4-(2-(ethyl(m-tolyl)amino)-2-oxoethyl)-4H-thieno[3,2-b]pyrrole-5-carboxamido)cyclohexane-1-carboxylate] | inhibited Nluc in either orientation | 12879 | 11813 | 9148 | 8059 | 6703 | 6014 | 5095 | 5132 | 4419 | 4017 | 3619 | do not inhibit firefly luciferase activity; also recorded: did not inhibit the firefly luciferase activity | decrease the RLUs from Nluc in a dose-dependent manner independent of time | cell permeable control characterized by similar EC50 in Live vs Lytic cells | 0.14 µM |  |  |  |  | 
2 | CCN(C(=O)Cn1c(C(=O)N[C@H]2CC[C@H](C(=O)NCCCCCC(=O)O)CC2)cc2sccc21)c1cccc(C)c1 [JRW-0147, 6-(trans-4-(4-(2-(ethyl(m-tolyl)amino)-2-oxoethyl)-4H-thieno[3,2-b]pyrrole-5-carboxamido)cyclohexane-1-carboxamido)hexanoic acid] | inhibit the classic ring-like structure, but not when Nluc is orientated intracellularly | 15580 | 11677 | 9790 | 8013 | 7125 | 5545 | 5302 | 4394 | 4367 | 3427 | 3389 | do not inhibit firefly luciferase activity; also recorded: did not inhibit the firefly luciferase activity | no significant change in RLUs from Nluc | cell impermeable characterized by right shifted EC50 in Live vs. Lytic cells | 0.094 µM | 115442 | 0.97 | 113278 | 0.95 | Nluc, Avg (luminescence) (Nluc [5]; [cmpd] 0.78125 μM): 111603; Nluc, S/B (Nluc [5]; [cmpd] 0.78125 μM): 0.94; Nluc, Avg (luminescence) (Nluc [5]; [cmpd] 1.5625 μM): 103399; Nluc, S/B (Nluc [5]; [cmpd] 1.5625 μM): 0.87; Nluc, Avg (luminescence) (Nluc [5]; [cmpd] 3.125 μM): 96256; Nluc, S/B (Nluc [5]; [cmpd] 3.125 μM): 0.81; Nluc, Avg (luminescence) (Nluc [5]; [cmpd] 6.25 μM): 79191; Nluc, S/B (Nluc [5]; [cmpd] 6.25 μM): 0.67; Nluc, Avg (luminescence) (Nluc [5]; [cmpd] 12.5 μM): 66480; Nluc, S/B (Nluc [5]; [cmpd] 12.5 μM): 0.56; Nluc, Avg (luminescence) (Nluc [5]; [cmpd] 25 μM): 54498; Nluc, S/B (Nluc [5]; [cmpd] 25 μM): 0.46; Nluc, Avg (luminescence) (Nluc [5]; [cmpd] 50 μM): 42630; Nluc, S/B (Nluc [5]; [cmpd] 50 μM): 0.36; Nluc, Avg (luminescence) (Nluc [5]; [cmpd] 100 μM): 32702; Nluc, S/B (Nluc [5]; [cmpd] 100 μM): 0.27; Nluc, Avg (luminescence) (Nluc [5]; [cmpd] 200 μM): 23722; Nluc, S/B (Nluc [5]; [cmpd] 200 μM): 0.20
3 | CCN(C(=O)Cn1c(C(=O)N[C@H]2CC[C@H](C(=O)NCCCCCCS(=O)(=O)[O-])CC2)cc2sccc21)c1cccc(C)c1.[Na+] [JRW-0344, Sodium 6-(trans-4-(4-(2-(ethyl(m-tolyl)amino)-2-oxoethyl)-4H-thieno[3,2-b]pyrrole-5-carboxamido)cyclohexane-1-carboxamido)hexane-1-sulfonate] | inhibit the classic ring-like structure, but not when Nluc is orientated intracellularly |  |  |  |  |  |  |  |  |  |  |  |  |  | cell impermeable characterized by right shifted EC50 in Live vs. Lytic cells | 0.077 µM | 102409 | 0.92 | 99851 | 0.90 | Nluc, Avg (luminescence) (Nluc [5]; [cmpd] 0.78125 μM): 95060; Nluc, S/B (Nluc [5]; [cmpd] 0.78125 μM): 0.86; Nluc, Avg (luminescence) (Nluc [5]; [cmpd] 1.5625 μM): 83141; Nluc, S/B (Nluc [5]; [cmpd] 1.5625 μM): 0.75; Nluc, Avg (luminescence) (Nluc [5]; [cmpd] 3.125 μM): 71976; Nluc, S/B (Nluc [5]; [cmpd] 3.125 μM): 0.65; Nluc, Avg (luminescence) (Nluc [5]; [cmpd] 6.25 μM): 65136; Nluc, S/B (Nluc [5]; [cmpd] 6.25 μM): 0.59; Nluc, Avg (luminescence) (Nluc [5]; [cmpd] 12.5 μM): 52627; Nluc, S/B (Nluc [5]; [cmpd] 12.5 μM): 0.47; Nluc, Avg (luminescence) (Nluc [5]; [cmpd] 25 μM): 40392; Nluc, S/B (Nluc [5]; [cmpd] 25 μM): 0.36; Nluc, Avg (luminescence) (Nluc [5]; [cmpd] 50 μM): 32113; Nluc, S/B (Nluc [5]; [cmpd] 50 μM): 0.29; Nluc, Avg (luminescence) (Nluc [5]; [cmpd] 100 μM): 23445; Nluc, S/B (Nluc [5]; [cmpd] 100 μM): 0.21; Nluc, Avg (luminescence) (Nluc [5]; [cmpd] 200 μM): 16291; Nluc, S/B (Nluc [5]; [cmpd] 200 μM): 0.15
